# Source: PubChem BioAssay AID1259411 (Chemical Carcinogenesis Research Information System (CCRIS), 2018)
# Activity calls are given as the source filed them. The rule behind the calls is not given here.
# Test system: rodent carcinogenicity bioassays, tumor incidence
# Test: CCRIS carcinogenicity studies
# Outline: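 Archive of carcinogenicity, mutagenicity, tumor promotion and tumor inhibition results drawn from journals, NCI reports and other sources, expert-reviewed; covers 1985-2011 and is no longer updated.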
smiles,measurement,setting,value
CN(C)CCN(Cc1cccs1)c1ccccn1,carcinogen call,"Species: RAT, Strain/Sex: F344/FEMALE, Route: ORAL, Dose: 0, 1 G/L IN DEIONIZED DRINKING WATER FOR 12 WK WITH NO TREATMENT DURING WK 5 AND 9 (STUDY DURATION: 121 WK)",inactive; negative
same,carcinogen call,"Species: RAT, Strain/Sex: F344/FEMALE, Route: ORAL, Dose: 0, 125, 250 MG/KG IN DIET (TOTAL DOSE: 0; 7; 15 MG/KG) FOR 110 WK (STUDY DURATION: 133 WK), Dose: 0, 125, 250 MG/KG IN DIET (TOTAL DOSE: 0; 7; 15 MG/KG) FOR 110 WK (STUDY DURATION: 133 WK), Tumor Site: Type of Lesion: LIVER: CARCINOMA",active; positive
same,carcinogen call,"Species: RAT, Strain/Sex: F344/MALE,FEMALE, Route: ORAL, Dose: 1000 PPM IN DIET FOR 64 WK (INITIAL DOSES AT 2000 PPM), Tumor Site: Type of Lesion: LIVER: HEPATOCELLULAR CARCINOMA, CHOLANGIOCARCINOMA",active; positive
same,carcinogen call,"Species: RAT, Strain/Sex: F344/MALE, Route: ORAL, Dose: 0, 125, 250 MG/KG IN DIET (TOTAL DOSE: 0; 7; 14 G/KG) FOR 110 WK (STUDY DURATION: 133 WK), Dose: 0, 125, 250 MG/KG IN DIET (TOTAL DOSE: 0; 7; 14 G/KG) FOR 110 WK (STUDY DURATION: 133 WK), Tumor Site: Type of Lesion: LIVER: CARCINOMA",active; positive
same,carcinogen call,"Species: RAT, Strain/Sex: SPRAGUE-DAWLEY/FEMALE, Route: ORAL, Dose: 0, 500, 1000 PPM IN DRINKING WATER 5D/WK FOR LIFE (STUDY DURATION: 576-709 D), Dose: 0, 500, 1000 PPM IN DRINKING WATER 5D/WK FOR LIFE (STUDY DURATION: 576-709 D), Tumor Site: Type of Lesion: LIVER: HEPATOCELLULAR CARCINOMA OR SARCOMA",active; positive
same,carcinogen call,"Species: RAT, Strain/Sex: SPRAGUE-DAWLEY/MALE, Route: ORAL, Dose: 0, 500, 1000 PPM IN DRINKING WATER 5D/WK FOR LIFE (STUDY DURATION: 585-760 D), Dose: 0, 500, 1000 PPM IN DRINKING WATER 5D/WK FOR LIFE (STUDY DURATION: 585-760 D), Tumor Site: Type of Lesion: LIVER: HEPATOCELLULAR CARCINOMA",active; positive
CCOC(=O)C(O)(c1ccc(Cl)cc1)c1ccc(Cl)cc1,carcinogen call,"Species: MOUSE, Strain/Sex: B6C3F1/FEMALE, Route: ORAL, Dose: 0, 3200, 5908 PPM IN DIET FOR 78 WK (STUDY DURATION: 90-91 WK), Dose: 0, 3200, 5908 PPM IN DIET FOR 78 WK (STUDY DURATION: 90-91 WK), Tumor Site: Type of Lesion: LIVER: HEPATOCELLULAR CARCINOMA",active; positive
same,carcinogen call,"Species: MOUSE, Strain/Sex: B6C3F1/MALE, Route: ORAL, Dose: 0, 4231, 7846 PPM IN DIET FOR 78 WK (STUDY DURATION: 90-91 WK), Dose: 0, 4231, 7846 PPM IN DIET FOR 78 WK (STUDY DURATION: 90-91 WK), Tumor Site: Type of Lesion: LIVER: HEPATOCELLULAR CARCINOMA",active; positive
same,carcinogen call,"Species: RAT, Strain/Sex: OSBORNE-MENDEL/FEMALE, Route: ORAL, Dose: 0, 1175, 2229 PPM IN DIET FOR 78 WK (STUDY DURATION: 110-111 WK), Dose: 0, 1175, 2229 PPM IN DIET FOR 78 WK (STUDY DURATION: 110-111 WK), Tumor Site: Type of Lesion: ADRENAL GLAND: CORTICAL ADENOMA",equivocal
same,carcinogen call,"Species: RAT, Strain/Sex: OSBORNE-MENDEL/MALE, Route: ORAL, Dose: 0, 1600, 2995 PPM IN DIET FOR 78 WK (STUDY DURATION: 110-111 WK), Dose: 0, 1600, 2995 PPM IN DIET FOR 78 WK (STUDY DURATION: 110-111 WK), Tumor Site: Type of Lesion: ADRENAL GLAND: CORTICAL ADENOMA",equivocal
[O]=[Mo](=[O])=[O],carcinogen call,"Species: MOUSE, Strain/Sex: B6C3F1/FEMALE, Route: INHALATION, Dose: 0, 10, 30, 100 MG/M3 6 HR/D 5 D/WK FOR 105 WK (STUDY DURATION: 105 WK), Dose: 0, 10, 30, 100 MG/M3 6 HR/D 5 D/WK FOR 105 WK (STUDY DURATION: 105 WK), Tumor Site: Type of Lesion: LUNG: ALVEOLAR/BRONCHIOLAR ADENOMA, ALVEOLAR/BRONCHIOLAR ADENOMA OR CARCINOMA",active; positive
same,carcinogen call,"Species: MOUSE, Strain/Sex: B6C3F1/MALE, Route: INHALATION, Dose: 0, 10, 30, 100 MG/M3 6 HR/D 5 D/WK FOR 105 WK (STUDY DURATION: 105 WK), Dose: 0, 10, 30, 100 MG/M3 6 HR/D 5 D/WK FOR 105 WK (STUDY DURATION: 105 WK), Tumor Site: Type of Lesion: LUNG: ALVEOLAR/BRONCHIOLAR CARCINOMA",active; positive
same,carcinogen call,"Species: RAT, Strain/Sex: F344/FEMALE, Route: INHALATION, Dose: 0, 10, 30, 100 MG/M3 6 HR/D 5 D/WK FOR 106 WK (STUDY DURATION: 106 WK), Dose: 0, 10, 30, 100 MG/M3 6 HR/D 5 D/WK FOR 106 WK (STUDY DURATION: 106 WK)",inactive; negative
same,carcinogen call,"Species: RAT, Strain/Sex: F344/MALE, Route: INHALATION, Dose: 0, 10, 30, 100 MG/M3 6 HR/D 5 D/WK FOR 106 WK (STUDY DURATION: 106 WK), Dose: 0, 10, 30, 100 MG/M3 6 HR/D 5 D/WK FOR 106 WK (STUDY DURATION: 106 WK), Tumor Site: Type of Lesion: LUNG: ALVEOLAR/BRONCHIOLAR ADENOMA, ALVEOLAR/BRONCHIOLAR CARCINOMA, ALVEOLAR/BRONCHIOLAR ADENOMA OR CARCINOMA",equivocal
CCC(C)(CC)c1cc(NC(=O)c2c(OC)cccc2OC)on1,carcinogen call,"Species: Mouse, Strain/Sex: B6C3F1/Male (60/Group), Route: Oral, Dose: 0, 100, 1000, 12,500 ppm of 85% isoxaben (plus 10.5% closely related isomers) in diet for 2 yr, study duration 2 yr, Dose: 0, 100, 1000, 12,500 ppm of 85% isoxaben (plus 10.5% closely related isomers) in diet for 2 yr, study duration 2 yr, Tumor Site: Type of Lesion: Liver: Hepatocellular adenomas (increased incidence and multiplicity at 12,500 ppm)",active; positive
same,carcinogen call,"Species: Rat, Strain/Sex: Fischer 344/Female (60/Group), Route: Oral, Dose: 0, 125, 1250, 12,500 ppm of 85% isoxaben (plus 10.5% closely related isomers) in diet for 2 yr, study duration 2 yr, Dose: 0, 125, 1250, 12,500 ppm of 85% isoxaben (plus 10.5% closely related isomers) in diet for 2 yr, study duration 2 yr",inactive; negative
same,carcinogen call,"Species: Rat, Strain/Sex: Fischer 344/Male (60/Group), Route: Oral, Dose: 0, 125, 1250, 12,500 ppm of 85% isoxaben (plus 10.5% closely related isomers) in diet for 2 yr, study duration 2 yr, Dose: 0, 125, 1250, 12,500 ppm of 85% isoxaben (plus 10.5% closely related isomers) in diet for 2 yr, study duration 2 yr, Tumor Site: Type of Lesion: Adrenal gland: pheochromocytoma (highest dose)",active; positive
c1cc2ccc3ccc4ccc5cccc6c(c1)c2c3c4c56,carcinogen call,"Species: RAT, Strain/Sex: OSBORNE-MENDEL/FEMALE, Route: LUNG IMPLANT, Dose: 0, 0.16, 0.83, 4.15 MG IN BEESWAX/TRIOCTANOIN (STUDY DURATION: LIFETIME), Dose: 0, 0.16, 0.83, 4.15 MG IN BEESWAX/TRIOCTANOIN (STUDY DURATION: LIFETIME)",inactive; negative
O=C1c2ccccc2C(=O)c2c(O)c(O)cc(O)c21,carcinogen call,"Species: RAT, Strain/Sex: F344/MALE, Route: ORAL, Dose: 0, 1% IN DIET FOR 520 D (STUDY DURATION: 520 D), Tumor Site: Type of Lesion: URINARY BLADDER: CARCINOMA",active; positive
